Laboratory results from patent US20260184663A1, “INDENE COMPOUNDS, PHARMACEUTICAL COMPOSITIONS THEREOF, AND THEIR THERAPEUTIC APPLICATIONS” (NucMito Pharmaceuticals co. Ltd., priority 2022, published 2026).
Like-named read-outs stand apart in the source and are kept apart here.

Tests used:
Type in all cases: cell-based
[1] = system: A549 (lung adenocarcinoma); assay: Antiproliferative activity (CCK-8 cell viability), A549; settings: Homo sapiens, 72 h; for inhibition at 3.3 µM: Compound concentration: 3.3 μM; for inhibition at 10 µM: Compound concentration: 10 μM; for inhibition at 30 µM: Compound concentration: 30 μM
Procedure, shortened: (§1)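 Cells grown in DMEM (HepG2, SW480), MEM (HeLa) or F-12K (A549), each with 10% FBS, then exposed to compound at 3.3, 10 or 30 μM for 72 h at 37 °C. CCK-8 absorbance at 450 nm; viability expressed as percent of DMSO-treated cells, graded as growth inhibition bands.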

[2] = system: A431 (epidermoid carcinoma); assay: Antiproliferative activity (CCK-8 cell viability), A431; settings: Homo sapiens, 72 h; for inhibition at 3.3 µM: A-431, Compound concentration: 3.3 μM; for inhibition at 10 µM: A-431, Compound concentration: 10 μM; for inhibition at 30 µM: A-431, Compound concentration: 30 μM
Procedure, shortened: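 A431 epidermoid carcinoma cells grown in DMEM with 10% FBS were plated at 2,000-5,000 cells/well in 96-well plates. After attachment they were exposed to compound at 3.3 μM, 10 μM, or 30 μM for 72 h at 37° C. Viability was then assessed by CCK-8 against DMSO vehicle-treated wells.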

[3] = system: MDA-MB-231 (breast cancer); assay: Antiproliferative activity (CCK-8 cell viability), MDA-MB-231; settings: Homo sapiens, 72 h; for inhibition at 3.3 µM: Compound concentration: 3.3 μM; for inhibition at 10 µM: Compound concentration: 10 μM; for inhibition at 30 µM: Compound concentration: 30 μM
Procedure, shortened: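 MDA-MB-231 breast cancer cells, grown in DMEM with 10% FBS, were plated in 96-well plates at 2,000-5,000 cells/well. Once attached, they were exposed to compound and incubated at 37° C. for 72 h. Viability was then measured with CCK-8 (10 μL per well, 4 h at 37° C.) by absorbance at 450 nm, relative to DMSO vehicle wells.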

[4] = system: B16F10 (malignant melanoma); assay: Antiproliferative activity (CCK-8 cell viability), B16F10; settings: Mus musculus, 72 h; for inhibition at 3.3 µM: B16-F10, Compound concentration: 3.3 μM; for inhibition at 10 µM: B16-F10, Compound concentration: 10 μM; for inhibition at 30 µM: B16-F10, Compound concentration: 30 μM
Procedure, shortened: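 B16F10 melanoma cells grown in DMEM with 10% FBS were plated in 96-well plates at 2,000-5,000 cells/well. After attachment they were exposed to compound in medium for 72 h at 37° C. CCK-8 solution (10 μL) was then added, and after 4 h at 37° C absorbance was read at 450 nm.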

HepG2 (liver cancer) = assay: Antiproliferative activity (CCK-8 cell viability), HepG2; settings: Homo sapiens, 72 h; for inhibition at 3.3 µM: Compound concentration: 3.3 μM; for inhibition at 10 µM: Compound concentration: 10 μM; for inhibition at 30 µM: Compound concentration: 30 μM
Procedure, shortened: as §1

HeLa (cervical cancer) = assay: Antiproliferative activity (CCK-8 cell viability), HeLa; settings: Homo sapiens, 72 h, read-out: Antiproliferative activity in cancerous cells, HELA (inhibition of cell growth); for inhibition at 3.3 µM: Compound concentration: 3.3 μM; for inhibition at 10 µM: Compound concentration: 10 μM
Procedure, shortened: as §1

SW480 (colon cancer) = assay: Antiproliferative activity (CCK-8 cell viability), SW480; settings: Homo sapiens, 72 h; for inhibition at 3.3 µM: Compound concentration: 3.3 μM; for inhibition at 10 µM: Compound concentration: 10 μM; for inhibition at 30 µM: Compound concentration: 30 μM
Procedure, shortened: as §1

[5] = read-out: Antiproliferative activity in cancerous cells, A549 (inhibition of cell growth)
[6] = read-out: Antiproliferative activity in cancerous cells, A431 (inhibition of cell growth)
[7] = read-out: Antiproliferative activity in cancerous cells, MDA-MB-231 (inhibition of cell growth)
[8] = read-out: Antiproliferative activity in cancerous cells, B16F10 (inhibition of cell growth)
[9] = read-out: Antiproliferative activity in cancerous cells, HepG2 (inhibition of cell growth)
[10] = read-out: Antiproliferative activity in cancerous cells, SW480 (inhibition of cell growth)
[11] = read-out: Antiproliferative activity in cancerous cells, MDA-MB-231

Compound	inhibition at 3.3 µM [1, 5] [%]	inhibition at 10 µM [1, 5] [%]	inhibition at 3.3 µM [2, 6] [%]	inhibition at 10 µM [2, 6] [%]	inhibition at 3.3 µM [3, 7] [%]	inhibition at 10 µM [3, 7] [%]	inhibition at 3.3 µM [4, 8] [%]	inhibition at 10 µM [4, 8] [%]	inhibition at 3.3 µM (HepG2 (liver cancer); [9]) [%]	inhibition at 10 µM (HepG2 (liver cancer); [9]) [%]	inhibition at 3.3 µM (HeLa (cervical cancer)) [%]	inhibition at 10 µM (HeLa (cervical cancer)) [%]	inhibition at 3.3 µM (SW480 (colon cancer); [10]) [%]	inhibition at 10 µM (SW480 (colon cancer); [10]) [%]	also measured
CC1=C(CC(=O)O)c2cc(F)ccc2/C1=C\c1ccc(CO)cc1 [D11, (Z)-2-(5-Fluoro-1-(4-(hydroxymethyl)benzylidene)-2-methyl-1H-inden-3-yl)acetic acid]	< 30	≥ 50	< 30	≥ 50	≥ 50	≥ 50	< 30	< 30	< 30	< 30	< 30	< 30	< 30	≥ 50	inhibition at 30 µM [1, 5]: ≥ 50%; inhibition at 30 µM [2, 6]: ≥ 50%; inhibition at 30 µM [3, 7]: ≥ 50%; inhibition at 30 µM [4, 8]: < 30%; inhibition at 30 µM (HepG2 (liver cancer); [9]): < 30%; inhibition at 30 µM (HeLa (cervical cancer); Compound concentration: 30 μM): ≥ 50%; inhibition at 30 µM (SW480 (colon cancer); [10]): ≥ 50%
CC1=C(CC(=O)O)c2cc(Cl)ccc2/C1=C\c1ccc(Oc2ccc(F)c(F)c2)cc1 [C76, (Z)-2-(5-Chloro-1-(4-(3,4-difluorophenoxy)benzylidene)-2-methyl-1H-inden-3-yl)acetic acid]	30 to 50	≥ 50	≥ 50	≥ 50	< 30	≥ 50	30 to 50	≥ 50	< 30	≥ 50	30 to 50	≥ 50	< 30	≥ 50	
CC1=C(CC(=O)O)c2cc(Br)ccc2/C1=C\c1ccc(Oc2ccc(F)cc2)cc1 [C86, (Z)-2-(5-Bromo-1-(4-(4-fluorophenoxy)benzylidene)-2-methyl-1H-inden-3-yl)acetic acid]	< 30	< 30	30 to 50	30 to 50	< 30	< 30	< 30	30 to 50	< 30	< 30	< 30	< 30	< 30	< 30	inhibition at 30 µM ([1]; read-out: Antiproliferative activity in cancerous cells, A549): < 30%; inhibition at 30 µM ([2]; read-out: Antiproliferative activity in cancerous cells, A431): 30 to 50%; inhibition at 30 µM [3, 11]: < 30%; inhibition at 30 µM ([4]; read-out: Antiproliferative activity in cancerous cells, B16F10): 30 to 50%; inhibition at 30 µM (HepG2 (liver cancer); read-out: Antiproliferative activity in cancerous cells, HepG2): < 30%; inhibition at 30 µM (SW480 (colon cancer); read-out: Antiproliferative activity in cancerous cells, SW480): < 30%
CC1=C(CC(=O)O)c2cc(C)ccc2/C1=C\c1ccc(COCc2ccc(Cl)cc2)cc1 [B149, (Z)-2-(1-(4-(((4-Chlorobenzyl)oxy)methyl)benzylidene)-2,5-dimethyl-1H-inden-3-yl)acetic acid]	30 to 50	≥ 50	≥ 50	≥ 50	< 30	30 to 50	< 30	< 30	< 30	≥ 50	< 30	≥ 50	< 30	30 to 50	
CCc1ccc(COCc2ccc(/C=C3/C(C)=C(CC(=O)O)c4cc(F)ccc43)cc2)cc1 [B151, (Z)-2-(1-(4-(((4-Ethylbenzyl)oxy)methyl)benzylidene)-5-fluoro-2-methyl-1H-inden-3-yl)acetic acid]	30 to 50	≥ 50	≥ 50	≥ 50	30 to 50	≥ 50	< 30	< 30	< 30	≥ 50	< 30	≥ 50	30 to 50	≥ 50	
CC1=C(CC(=O)O)c2cc(F)ccc2/C1=C\c1ccc(CCOc2ccccc2)cc1 [B32, (Z)-2-(5-Fluoro-2-methyl-1-(4-(2-phenoxyethyl)benzylidene)-1H-inden-3-yl)acetic acid]	30 to 50	≥ 50	30 to 50	≥ 50	< 30	< 30	30 to 50	≥ 50	< 30	≥ 50	< 30	≥ 50	30 to 50	30 to 50	
CC1=C(CC(=O)O)c2cc(F)ccc2/C1=C\c1ccc(CSc2ccc(F)cc2)cc1 [B45, (Z)-2-(5-Fluoro-1-(4-(((4-fluorophenyl)thio)methyl)benzylidene)-2-methyl-1H-inden-3-yl)acetic acid]	< 30	< 30	< 30	30 to 50	< 30	< 30	< 30	≥ 50	< 30	≥ 50	< 30	≥ 50	< 30	≥ 50	inhibition at 30 µM [3, 11]: < 30%
COc1ccc(CCCc2ccc(/C=C3/C(C)=C(CC(=O)O)c4cc(Cl)ccc43)cc2)cc1 [B127, (Z)-2-(5-Chloro-1-(4-(3-(4-methoxyphenyl)propyl)benzylidene)-2-methyl-1H-inden-3-yl)acetic acid]	≥ 50	≥ 50	≥ 50	≥ 50	≥ 50	≥ 50	≥ 50	≥ 50	≥ 50	≥ 50	≥ 50	≥ 50	< 30	≥ 50	
